Reference: the supplement of paper PMC10307832

What was measured:
Assay in all cases: relative viability (nuclei count vs DMSO), 5 days (fraction); higher = more cells survive
Vorinostat = compound: O=C(CCCCCCC(=O)Nc1ccccc1)NO [Vorinostat]
In short: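 Five library-drug doses spaced by √10 were pinned onto vehicle-anchored 1536-well plates of lung cancer cell lines that had been kept overnight at 37 °C. Cells went 5 days without medium change, then were fixed, permeabilised and Hoechst-stained together, imaged at 4× and counted by MetaXpress. Viability is the ratio of treated-well to vehicle-well nuclei, taken as a median over plates. Plates required control CV below 25% and at least one doubling.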

Vorinostat + Linsitinib = compound: O=C(CCCCCCC(=O)Nc1ccccc1)NO [Vorinostat] + C[C@]1(O)C[C@@H](c2nc(-c3ccc4ccc(-c5ccccc5)nc4c3)c3c(N)nccn32)C1 [Linsitinib] (partner 1 µM)
In short: (§1)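 Relative viability is defined as nuclei in treated wells over nuclei in vehicle wells. Duplicate plates were run and medians reported. Lung cancer cell lines in 1536-well plates were dosed by pin tool one day after seeding, with one drug or with a fixed anchor-drug dose plus five library-drug doses (not always all listed) in √10 steps, and nuclei were counted after 5 days.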

Vorinostat + Dasatinib = compound: O=C(CCCCCCC(=O)Nc1ccccc1)NO [Vorinostat] + Cc1nc(Nc2ncc(C(=O)Nc3c(C)cccc3Cl)s2)cc(N2CCN(CCO)CC2)n1 [Dasatinib] (partner 0.075 µM)
In short: as §1

Vorinostat + Phenformin = compound: O=C(CCCCCCC(=O)Nc1ccccc1)NO [Vorinostat] + N=C(N)NC(=N)NCCc1ccccc1 [Phenformin] (partner 250 µM)
In short: as §1

Row | Cell Line | relative viability (Vorinostat; 0.253 µM) | relative viability (Vorinostat; 0.8 µM) | relative viability (Vorinostat; 1 µM, anchor plate) | relative viability (Vorinostat; 2.53 µM) | relative viability (Vorinostat; 8 µM) | relative viability (Vorinostat + Linsitinib; first compound 0.253 µM) | relative viability (Vorinostat + Linsitinib; first compound 0.8 µM) | relative viability (Vorinostat + Linsitinib; first compound 2.53 µM) | relative viability (Vorinostat + Linsitinib; first compound 8 µM) | relative viability (Vorinostat + Dasatinib; first compound 0.253 µM) | relative viability (Vorinostat + Dasatinib; first compound 0.8 µM) | relative viability (Vorinostat + Dasatinib; first compound 2.53 µM) | relative viability (Vorinostat + Dasatinib; first compound 8 µM) | relative viability (Vorinostat + Phenformin; first compound 0.253 µM) | relative viability (Vorinostat + Phenformin; first compound 0.8 µM) | relative viability (Vorinostat + Phenformin; first compound 2.53 µM) | relative viability (Vorinostat + Phenformin; first compound 8 µM)
1 | NCI-H838 | 1.15 | 1.03 | 0.763 | 0.565 | 0.191 | 1.19 | 1.08 | 0.459 | 0.172 | 0.378 | 0.442 | 0.368 | 0.186 | 0.95 | 0.562 | 0.317 | 0.139
2 | NCI-H1355 | 1.16 | 0.852 | 0.673 | 0.598 | 0.192 | 0.917 | 0.707 | 0.451 | 0.139 | 0.825 | 0.503 | 0.298 | 0.169 | 0.471 | 0.411 | 0.333 | 0.179
3 | NCI-H1395 | 0.91 | 0.919 | 0.834 | 0.631 | 0.387 | 1.31 | 1.22 | 0.725 | 0.344 | 0.395 | 0.434 | 0.365 | 0.344 | 0.475 | 0.501 | 0.401 | 0.341
4 | NCI-H1437 | 1.04 | 0.831 | 0.861 | 0.421 | 0.184 | 1.19 | 0.789 | 0.138 | 0.0938 | 0.459 | 0.183 | 0.152 | 0.137 | 0.302 | 0.246 | 0.168 | 0.178
5 | NCI-H1563 | 1.07 | 0.856 |  | 0.629 | 0.513 | 1.19 | 1.03 | 0.749 | 0.525 | 0.411 | 0.458 | 0.448 | 0.385 | 0.771 | 0.727 | 0.556 | 0.492
6 | NCI-H1651 | 1.01 | 0.928 | 0.579 | 0.203 | 0.0791 | 1.01 | 0.762 | 0.0741 | 0.0616 | 0.415 | 0.195 | 0.0466 | 0.0608 | 0.408 | 0.326 | 0.0932 | 0.0635
7 | NCI-H1666 | 1.05 | 0.955 | 1.01 | 0.514 | 0.348 | 0.864 | 0.707 | 0.33 | 0.227 | 0.881 | 0.698 | 0.422 | 0.266 | 0.591 | 0.474 | 0.398 | 0.306
8 | NCI-H1734 | 1.28 | 0.982 | 0.832 | 0.688 | 0.15 | 0.982 | 0.856 | 0.658 | 0.133 | 0.608 | 0.624 | 0.39 | 0.111 | 0.501 | 0.388 | 0.297 | 0.0963
9 | NCI-H1755 | 1.08 | 1.01 | 0.735 | 0.566 | 0.292 | 1.07 | 1.05 | 0.512 | 0.188 | 0.447 | 0.469 | 0.254 | 0.139 | 0.646 | 0.579 | 0.413 | 0.204
10 | NCI-H1792 | 0.965 | 0.762 |  | 0.371 | 0.108 | 0.57 | 0.376 | 0.148 | 0.0672 | 0.866 | 0.921 | 0.402 | 0.126 | 0.269 | 0.228 | 0.0757 | 0.0593
11 | NCI-H1793 | 1.37 | 0.951 | 0.821 | 0.817 | 0.29 | 0.781 | 0.95 | 0.703 | 0.215 | 0.491 | 0.433 | 0.351 | 0.135 | 0.467 | 0.415 | 0.516 | 0.279
12 | NCI-H1915 | 1.12 | 0.878 | 0.524 | 0.514 | 0.123 | 1.12 | 1.03 | 0.587 | 0.113 | 0.324 | 0.24 | 0.164 | 0.108 | 0.38 | 0.341 | 0.181 | 0.0949
13 | NCI-H1944 | 0.927 | 0.707 | 0.57 | 0.341 | 0.21 | 1.21 | 0.948 | 0.697 | 0.207 | 0.204 | 0.184 | 0.178 | 0.174 | 0.203 | 0.19 | 0.146 | 0.123
14 | NCI-H1975 | 1.08 | 0.817 | 0.707 | 0.449 | 0.14 | 0.987 | 0.8 | 0.294 | 0.145 | 0.407 | 0.32 | 0.162 | 0.0818 | 0.431 | 0.381 | 0.197 | 0.127
15 | NCI-H1993 | 1.08 | 1 | 0.823 | 0.705 | 0.56 | 0.836 | 0.861 | 0.575 | 0.614 | 0.655 | 0.626 | 0.544 | 0.41 | 0.436 | 0.491 | 0.588 | 0.464
16 | NCI-H2009 | 1.14 | 0.878 | 0.711 | 0.482 | 0.153 | 1.27 | 1.07 | 0.707 | 0.177 | 0.466 | 0.454 | 0.168 | 0.082 | 0.545 | 0.496 | 0.319 | 0.144

Row | Cell Line | relative viability (Vorinostat; 0.253 µM) | relative viability (Vorinostat; 0.8 µM) | relative viability (Vorinostat; 1 µM, anchor plate) | relative viability (Vorinostat; 2.53 µM) | relative viability (Vorinostat; 8 µM) | relative viability (Vorinostat + Linsitinib; first compound 0.253 µM) | relative viability (Vorinostat + Linsitinib; first compound 0.8 µM) | relative viability (Vorinostat + Linsitinib; first compound 2.53 µM) | relative viability (Vorinostat + Linsitinib; first compound 8 µM) | relative viability (Vorinostat + Dasatinib; first compound 0.253 µM) | relative viability (Vorinostat + Dasatinib; first compound 0.8 µM) | relative viability (Vorinostat + Dasatinib; first compound 2.53 µM) | relative viability (Vorinostat + Dasatinib; first compound 8 µM) | relative viability (Vorinostat + Phenformin; first compound 0.253 µM) | relative viability (Vorinostat + Phenformin; first compound 0.8 µM) | relative viability (Vorinostat + Phenformin; first compound 2.53 µM) | relative viability (Vorinostat + Phenformin; first compound 8 µM)
17 | NCI-H2023 | 1.22 | 0.771 | 0.709 | 0.209 | 0.0744 | 0.841 | 0.682 | 0.296 | 0.0892 | 0.872 | 0.49 | 0.134 | 0.061 | 0.444 | 0.442 | 0.192 | 0.0722
18 | NCI-H2085 | 1.05 | 0.939 | 0.815 | 0.714 | 0.369 | 0.818 | 0.804 | 0.621 | 0.243 | 0.24 | 0.252 | 0.223 | 0.225 | 0.781 | 0.532 | 0.46 | 0.223
19 | NCI-H2087 | 1.03 | 0.634 | 0.737 | 0.246 | 0.0956 | 0.974 | 1.03 | 0.474 | 0.159 | 0.94 | 0.553 | 0.124 | 0.0691 | 0.449 | 0.331 | 0.0993 | 0.0935
20 | NCI-H2126 | 1.03 | 0.875 | 0.769 | 0.655 | 0.257 | 0.581 | 0.68 | 0.456 | 0.224 | 0.608 | 0.566 | 0.216 | 0.158 | 0.525 | 0.495 | 0.244 | 0.177
21 | NCI-H2228 | 0.93 | 0.802 | 0.654 | 0.476 | 0.146 | 0.805 | 0.542 | 0.425 | 0.0918 | 0.39 | 0.323 | 0.127 | 0.0817 | 0.388 | 0.27 | 0.136 | 0.102
22 | NCI-H2347 | 1.11 | 0.962 | 0.61 | 0.777 | 0.262 | 0.992 | 0.982 | 0.766 | 0.306 | 0.283 | 0.295 | 0.271 | 0.189 | 0.46 | 0.351 | 0.19 | 0.2
23 | NCI-H2405 | 1.05 | 1.17 | 1.01 | 0.57 | 0.144 | 1.13 | 1.09 | 0.245 | 0.0821 | 0.237 | 0.17 | 0.117 | 0.0585 | 0.495 | 0.404 | 0.279 | 0.0401
24 | NCI-H3122 | 1.06 | 1.04 | 0.986 | 0.737 | 0.156 | 1.12 | 1.05 | 0.605 | 0.142 | 1.11 | 0.69 | 0.0421 | 0.0399 | 0.395 | 0.365 | 0.0662 | 0.118
25 | PC-3 [JPC-3] | 1.12 | 0.988 | 0.921 | 0.608 | 0.312 | 0.886 | 0.938 | 0.625 | 0.281 | 1 | 1 | 0.593 | 0.227 | 0.471 | 0.465 | 0.436 | 0.279
26 | PC-14 | 1.25 | 0.886 | 0.725 | 0.171 | 0.051 | 1.01 | 0.911 | 0.323 | 0.112 | 0.344 | 0.239 | 0.0451 | 0.026 | 0.713 | 0.561 | 0.131 | 0.0278
27 | RERF-LC-KJ | 1.04 | 0.911 | 0.698 | 0.405 | 0.246 | 0.983 | 0.855 | 0.694 | 0.168 | 0.817 | 0.543 | 0.212 | 0.24 | 0.453 | 0.394 | 0.284 | 0.288
28 | SK-LU-1 | 1.19 | 0.924 | 0.781 | 0.668 | 0.19 | 1.11 | 1.02 | 0.64 | 0.211 | 0.192 | 0.208 | 0.133 | 0.0924 | 0.658 | 0.549 | 0.285 | 0.123
29 | SK-MES-1 | 1.11 | 1.02 | 1.08 | 0.555 | 0.203 | 1.09 | 1.02 | 0.495 | 0.21 | 0.566 | 0.657 | 0.197 | 0.148 | 0.719 | 0.723 | 0.517 | 0.207
30 | SW 1573 | 1.25 | 0.938 | 0.84 | 0.485 | 0.0973 | 0.986 | 0.978 | 0.421 | 0.13 | 0.593 | 0.789 | 0.112 | 0.0513 | 0.613 | 0.556 | 0.355 | 0.0821
31 | UMC-11 | 1.1 | 0.617 | 0.403 | 0.201 | 0.103 | 1 | 0.6 | 0.164 | 0.0865 | 0.423 | 0.258 | 0.121 | 0.0971 | 0.325 | 0.199 | 0.123 | 0.115
